Results taken from patent publication US8765808B2, “Treatment or prevention of cancer and precancerous disorders” (CHS Pharma, Inc., priority 2005, dated 2014).
“Also recorded” adds a separate entry of the source.

Experiments:
[1] = system: lung carcinoma cell line designated A549; assay: MTS cell viability after pretreatment and oxidative stress, lung cancer cells
Procedure: Cell viability was determined by the [sequence] 96®-Aqueous One Cell Proliferation Assay (Promega) according to the manufacturer's instructions. The assay utilizes a novel tetrazolium compound (3-(4,5-dimethylthiazol-2-yl)-5-(3-carboxymethoxyphenyl)-2-(4-sulfophenyl)-2H-tetrazolium; MTS) and an electron-coupling reagent (phenazine ethosulfate; PES). Metabolically active cells convert the MTS to a water-soluble formazan by the action of cellular dehydrogenases. The amount of formazan produced is measured by absorbance at 490 nm using a colorimetric microtiter plate reader (BIORAD; Model 2550). Absorbance is directly proportional to the number of viable cells.
Experiments using similar methods were performed with a lung carcinoma cell line designated A549. […] Cells were grown in Ham's F12K medium supplemented with final concentrations of 2 mM L-glutamine, 1.6 g/L sodium bicarbonate and 10% fetal bovine serum. Cultures were maintained between 6×10^3-6×10^4 cells/cm^2 in standard tissue culture flasks. The protocol for pretreatment of cells with 500 μM sulindac followed by a two hour exposure to various concentrations of TBHP was the same as that described for the RKO colon cancer cells.
Following a 24 hr pretreatment with 500 μM sulindac, the cells were washed once to remove the excess sulindac before exposure to TBHP for 2 hr.

[2] = system: CCD-18Co normal human colon cell line; assay: MTS cell viability after sulindac pretreatment and TBHP, normal colon cells; assay type: cell-based; conditions: 500 μM sulindac 24 hr, then TBHP 2 hr (FIG. 11)
Procedure: (§1) The cells were maintained in minimum essential medium (Eagle) supplemented with 2 mM L-glutamine, Earle's BSS containing 1.5 g/L sodium bicarbonate, 0.1 mM non-essential amino acids, 1.0 mM sodium pyruvate and 10% fetal bovine serum.

Lung cancer cells = assay: Intracellular ROS levels, lung cancer cells; assay type: cell-based; conditions: combination of sulindac and TBHP vs either treatment alone
Normal lung cells = assay: Intracellular ROS levels, normal lung cells; assay type: cell-based; conditions: combination of sulindac and TBHP
[3] = system: SCC-25 squamous cell skin cancer cell line; assay: MTS cell viability after pretreatment and oxidative stress, SCC skin cancer cells; assay type: cell-based, human; conditions: sulindac alone, concentrations below 1 mM, MTS assay
[4] = system: precancerous growths and/or BCC's; assay: Topical sulindac gel followed by hydrogen peroxide solution in patients; conditions: applied alone to the skin condition
[5] = Time course of sulindac pre-incubation before addition of the oxidant; assay type: cell-based
Procedure: Sulindac was pre-incubated for various times prior to the addition of the oxidant. […] There was no difference in the results with longer time courses such as 48-72 hours. After the pre-incubation with sulindac, the cells were washed and the oxidant was added with or without sulindac.

normal cells = assay: Constant non-toxic TBHP with escalating sulindac (FIG. 16), normal cells; assay type: cell-based; conditions: escalating sulindac 500 μM-1500 μM
cancer cells = assay: Constant non-toxic TBHP with escalating sulindac (FIG. 16), cancer cells; assay type: cell-based; conditions: escalating sulindac 500 μM-1500 μM
[6] = system: SCC-25 squamous cell skin cancer cell line; assay: MTS cell viability after pretreatment and oxidative stress, SCC skin cancer cells; assay type: cell-based, human; conditions: 500 μM sulindac 24 hr pretreatment, then TBHP 2 hr (FIG. 1)
Procedure: SCC-25 is a human squamous cell carcinoma cell line developed by J G Rheinwald [Rheinwald, 1981]. […] The cells were maintained in minimum essential medium (Eagle) supplemented with 2 mM L-glutamine, Earle's BSS containing 1.5 g/L sodium bicarbonate, 0.1 mM non-essential amino acids, 1.0 mM sodium pyruvate and 10% fetal bovine serum.
The experimental approach was to pretreat SCC cells with sulindac for 24 hr prior to exposure to TBHP for 2 hr. Sulindac (Sigma; S-8139) was freshly prepared as a 1M stock solution in 1M Tris.Cl, pH 8.0. SCC cells were suspended in culture medium containing 10% fetal bovine serum at a cell density of 6×10^5 cells/ml. Cell suspensions containing 500 μM sulindac or no sulindac (Control) were plated in 96 well microtiter plates with a total of 6×10^4 cells per well. The plates were incubated for 24 hr at 37° C. in a 5% CO2 incubator. The culture medium was then removed and the cells washed once with fresh culture medium without serum. After removal of the wash solution, fresh culture medium without serum that contained the indicated final concentration of TBHP was added to the cells for 2 hrs. Serum was omitted from the medium during the two-hour exposure to TBHP since TBHP may be rapidly depleted in the presence of serum.

[7] = system: Normal HEK skin cells (human neonatal epidermal keratinocytes); assay: Intracellular ROS by indicator dye fluorescence, normal HEK skin cells
Procedure: Experimental conditions: Normal HEK skin cells plated onto 6-well plates at cell density of 60-70% confluence. Sulindac (0.5 mM)×24 hours (cell density remained about the same) followed by TBHP×2 hours followed by ROS indicator dye (5 μM)×1 hour (Table 1).
Human neonatal epidermal keratinocytes were plated into 6-well plates at a cell density of 60-70% confluence. The cultures were pretreated with sulindac (500 uM) for 34 hours followed by the addition of different concentrations of TBHP for 2 hours. During this period of time, the cell density in the 6-well plates remained the same (there was no increase in cell proliferation). This was followed by the addition of the ROS indicator dye.

[8] = system: WM-266-4 Melanoma skin cell line; assay: MTS cell viability after pretreatment and oxidative stress, melanoma cells; assay type: cell-based, human; conditions: 500 μM sulindac 24 hr pretreatment, then TBHP 2 hr (FIG. 8)
[9] = system: normal human epidermal keratinocytes; assay: Cell viability after sulindac pretreatment and oxidative stress, normal keratinocytes; assay type: cell-based
Procedure: Experiments using similar methods were performed with primary human neonatal foreskin epidermal keratinocytes. These cells were of low-passage and purified using previously accepted protocols (provided by J. Li, University of Miami, Fl.). Cells were grown in 50% Keratinocyte-SFM media [Gibco-Invitrogen (Catalog #17005-042) supplemented with human recombinant Epidermal Growth Factor 1-53 (EGF 1-53) and Bovine Pituitary Extract (BPE)] with 50% EpiLife medium [Cascade Biologics (Catalog #Epi-500-Ca)] supplemented with purified bovine serum albumin, purified bovine transferrin, hydrocortisone, recombinant human insulin-like growth factor type-1 (rhIGF-1), prostaglandin E2 (PGE2), and recombinant human epidermal growth factor (rhEGF).
Normal human epidermal keratinocyte cells were incubated for 24 hr in the presence or absence of 500 μM sulindac. The medium was removed and the cells washed once with fresh medium followed by addition of medium containing the indicated concentration of (a) TBHP or (b) arsenic trioxide. After a 2 hr incubation with TBHP or a 24-hour incubation with arsenic trioxide at 37° C., the cells were assayed for viability as described.

[10] = system: ARPE-19, a human retinal pigment epithelial cell line; assay: Killing by peroxide after sulindac, retinal cells; assay type: cell-based; conditions: sulindac followed by peroxide (hydrogen peroxide and TBHP)
From the text: (§2) Primary neonatal rat cardiac myocytes and ARPE-19, a human retinal pigment epithelial cell line that is not fully transformed, were used in similar experiments with sulindac followed by peroxide.

[11] = system: RKO colon cancer cell line; assay: MTS cell viability after pretreatment and oxidative stress, RKO colon cancer cells; assay type: cell-based, human; conditions: 500 μM sulindac 24 hr pretreatment, then TBHP 2 hr (FIG. 4)
Procedure: RKO is a human colon carcinoma cell line developed by Michael Brattain [Brattain, 1984]. […] The cells were maintained in minimum essential medium (Eagle) supplemented with 2 mM L-glutamine, Earle's BSS containing 1.5 g/L sodium bicarbonate, 0.1 mM non-essential amino acids, 1.0 mM sodium pyruvate and 10% fetal bovine serum.
Experiments were performed with the RKO colon cancer cells that were pretreated with 500 μM sulindac using TBHP.

[12] = system: Primary neonatal rat cardiac myocytes; assay: Killing by peroxide after sulindac, normal cardiac cells; assay type: cell-based; conditions: sulindac followed by peroxide (hydrogen peroxide and TBHP)
From the text: as §2

[13] = system: MRC-5 normal human lung cell line; assay: MTS cell viability after sulindac pretreatment and TBHP, normal lung cells; assay type: cell-based; conditions: 500 μM sulindac 24 hr, then TBHP 2 hr (FIG. 12)
Procedure: as §1

SCC skin cancer cells = assay: Intracellular ROS by indicator dye fluorescence, SCC skin cancer cells
Procedure: SCC skin cancer cells were plated onto 6-well plates at a cell density of 50-60% confluence. The cultures were pretreated with sulindac (500 uM) for 24 hours followed by the addition of TBHP (100 uM) for two hours. During this period of time, the cell density in the 6-well plates increased to 80-90% confluent.

CC1=C(CC(=O)O)c2cc(F)ccc2/C1=C\c1ccc([S+](C)[O-])cc1 (racemic) [sulindac, Sulindac]
cell viability of lung cancer cells after exposure to TBHP ([1]; 500 μM sulindac 24 hr pretreatment, then TBHP 2 hr (FIG. 6)): marked decrease in cell viability | sensitivity of lung cancer cells to killing by H2O2 ([1]; 500 μM sulindac pretreatment (FIG. 7)): differentially sensitive to killing | viability of cells pretreated with sulindac ([1]; 1.5-2.0 mM TBHP, 2 hr, 500 μM sulindac pretreatment): at background levels | killing effect in all cancer cell studies ([1]; FIG. 15, 500 μM sulindac, 250 μM sulindac sulfone): most potent killing effect | H2O2 range in which difference in viability is highly significant (P<0.001) ([1]; sulindac-treated vs untreated cells): 2.5 to 5.0 mM | effect on oxidative stress by TBHP, normal colon cells [2]: provided protection from oxidative stress | intracellular ROS levels, lung cancer cells (Lung cancer cells): significantly higher levels of ROS | intracellular ROS levels, normal lung cells (Normal lung cells): lower levels of ROS | toxicity of sulindac: effect on cell viability [3]: no detectable effect on cell viability | effect on the precancerous or cancerous growth when applied alone [4]: no effect | minimum pre-incubation time with sulindac to see an effect [5]: ≥ 6 h | pre-incubation time with sulindac giving optimum effects [5]: 18 to 24 h | effect on normal cells (normal cells): protective effect | effect on cancer cells (cancer cells): enhanced killing | killing of SCC carcinoma cells by TBHP [6]: enhanced the killing | % Cells with ROS Uptake by Fluorescence ([7]; Table 1, Sul alone, 0.5 mM 24 hours): 2% | % Cells containing ROS ([7]; Table 4, Sul 500 uM alone): 2% | level of ROS uptake in normal HEK cells when combined with TBHP ([7]; sulindac combined with TBHP vs sulindac or TBHP alone): no significant effect | killing of Melanoma cells by TBHP [8]: enhanced the killing | viability of normal human epidermal keratinocytes, TBHP ([9]; 500 μM sulindac 24 hr, then TBHP 2 hr (FIG. 10A)): no significant effect | viability of normal human epidermal keratinocytes, arsenic trioxide ([9]; 500 μM sulindac 24 hr, then arsenic trioxide 24 hr (FIG. 10B)): no significant effect | TBHP concentrations with protective effect (enhanced resistance to oxidative stress) ([9]; in combination with sulindac, effect lost above 400 μM TBHP): 50 to 400 µM | killing of retinal cells by peroxide [10]: no enhanced killing | killing of RKO carcinoma cells by TBHP [11]: enhanced the killing | killing of normal cardiac cells by peroxide [12]: no enhanced killing | effect on oxidative stress by TBHP, normal lung cells [13]: provided protection from oxidative stress | % Cells with ROS Uptake by Fluorescence (SCC skin cancer cells; Table 2, Sul 0.5 mM 24 hours and/or TBHP 100 μM 2 hours): 3% | % Cells containing ROS (SCC skin cancer cells; Table 3, Sul 500 μM 24 hours and/or TBHP 100 μM 2 hours): 3% | number of spindle cells in the culture (SCC skin cancer cells; compared to untreated controls): tends to increase the number of spindle cells | ROS uptake in SCC skin cancer cells, sulindac in combination with TBHP (SCC skin cancer cells; sulindac 0.5 mM 24 hours then TBHP 100 μM 2 hours): geometrically enhances the levels of ROS uptake | ROS levels in SCC skin cancer cells, agent alone (SCC skin cancer cells; sulindac 500 uM or TBHP 100 uM alone): enhances the levels of ROS uptake; also recorded: enhanced the ROS levels
